Laboratory results: patent US12551451B2, “Compositions and methods for delivering molecules” (SunVax mRNA Therapeutics Inc., priority 2023, dated 2026)

Assay: LNP Characteristics (size, PDI, encapsulation efficiency) of LNPs formulated with novel ionizable lipids
Format: physicochemical
Conditions: LNP formulated with the ionizable lipid, DOPE, Cholesterol, DMG-PEG2000
Method: LNPs formulated using the novel ionizable lipids of the disclosure or control ionizable lipids MC3 and SM-102 were synthesized by mixing the lipid components of the LNP in ethanol at a predetermined molar ratio (ionizable lipid/DOPE/Cholesterol/DMG-PEG2000=30/15/50/1.5) to prepare an organic phase. Sa-mRNA encoding firefly luciferase (LUC) or green fluorescent protein (GFP) was diluted in 50 mM citrate buffer (pH 4.5, Fisher) to prepare an aqueous phase. The sa-mRNA was stored at −80° C. and was thawed on ice prior to use. The ethanol and aqueous phases were mixed at a 1:3 ratio by pipette with the N/P=4.2/1. The resultant LNPs were purified by ultrafiltration (100,000 cut-off, MilliporeSigma™ Amicon™ Ultra-15 Centrifugal Filter Units) at 4° C. prior to transfection into a cell, such as a T-cell.
LNPs formulated using novel ionizable lipids of the disclosure were synthesized using the procedure described in Example 2 and characterized. Table 4 below show the properties of each LNP formulated using a novel ionizable lipid of the disclosure.

Question: With `CCCCCCCCCN(CCCCCCCCC)CCC(=O)N1CN(C(=O)CCN(CCCCCCCCC)CCCCCCCCC)CN(C(=O)CCN(CCCCCCCCC)CCCCCCCCC)C1` [Lipid E2, 1,1′,1″-(1,3,5-triazinane-1,3,5-triyl)tris(3-(dinonylamino)propan-1-one)] as the molecule, how does the “Avg. Encapsulation Efficiency (EE) %” value read?
Answer: 95.1%

Question: What about the “Avg. PDI” value of the same molecule?
Answer: 0.1

Question: And the “Avg. Size” value?
Answer: 200 nm

Question: Which “Avg. Encapsulation Efficiency (EE) %” value does the source give for `CCCCCCCCCCCCCCCC(=O)N(C(CCCCCCCC)CCCCCCCC)C(C(=O)NC1=CCCCC1)C1CCN(CC)CC1` (stereo not drawn) [Lipid P6A2, N-(2-(cyclohex-1-en-1-ylamino)-1-(1-ethylpiperidin-4-yl)-2-oxoethyl)-N-(heptadecan-9-yl)palmitamide] here?
Answer: 90.4%

Question: What about the “Avg. PDI” value of the same molecule?
Answer: 0.12

Question: What about the “Avg. Size” value of the same molecule?
Answer: 190.7 nm

Question: Which “Avg. Encapsulation Efficiency (EE) %” value does the source give for `CCCCCCCCCCCCCC(=O)N(CC(CCCCCCCC)CCCCCCCCCC)C(C(=O)NC1CCCCC1)C1CCN(CC)CC1` (stereo not drawn) [Lipid P28D10] here?
Answer: 95.5%

Question: What about the “Avg. PDI” value of the same molecule?
Answer: 0.10

Question: What about the “Avg. Size” value of the same molecule?
Answer: 188.0 nm

Question: Which “Avg. Encapsulation Efficiency (EE) %” value does the source give for `CCCCCCCCCCCCCCCC(=O)N(C(CCCCCCC)CCCCCCC)C(C(=O)NC1CCCCC1)C1CCN(CC)CC1` (stereo not drawn) [Lipid P30A1, N-(2-(cyclohexylamino)-1-(1-ethylpiperidin-4-yl)-2-oxoethyl)-N-(pentadecan-8-yl)palmitamide] here?
Answer: 97.8%

Question: And the “Avg. PDI” value?
Answer: 0.11

Question: What about the “Avg. Size” value of the same molecule?
Answer: 176.6 nm

Question: What does the source list for `CCCCCCCCCCCCCCCCC(=O)N(C(CCCCCCC)CCCCCCC)C(CC1CCN(C)CC1)C(=O)NC1CCCCC1` (stereo not drawn) [Lipid P30B7, N-(1-(cyclohexylamino)-3-(1-methylpiperidin-4-yl)-1-oxopropan-2-yl)-N-(pentadecan-8-yl)heptadecanamide]?
Answer: Avg. Encapsulation Efficiency (EE) %: 91.0%; Avg. PDI: 0.10; Avg. Size: 151.6 nm

Question: With `CCCCCCCCCCCCCCCCCC(=O)N(C(CCCCCCC)CCCCCCC)C(CC1CCN(C)CC1)C(=O)NC1CCCCC1` (stereo not drawn) [Lipid P30C7, N-(1-(cyclohexylamino)-3-(1-methylpiperidin-4-yl)-1-oxopropan-2-yl)-N-(pentadecan-8-yl)stearamide] as the molecule, how does the “Avg. Encapsulation Efficiency (EE) %” value read?
Answer: 93.9%

Question: And the “Avg. PDI” value?
Answer: 0.11

Question: What about the “Avg. Size” value of the same molecule?
Answer: 166.8 nm

Question: Which results are given for `CCCCCCCCCCCCCC(=O)N(C(CCCCCCC)CCCCCCC)C(C(=O)NC1CCCCCC1)C1CCN(CC)CC1` (stereo not drawn) [Lipid P38D1, N-(2-(cycloheptylamino)-1-(1-ethylpiperidin-4-yl)-2-oxoethyl)-N-(pentadecan-8-yl)tetradecanamide]?
Answer: Avg. Encapsulation Efficiency (EE) %: 97.4%; Avg. PDI: 0.12; Avg. Size: 179.1 nm

Question: What does the source list for `CCCCCCCCCCCCCC(=O)N(C(CCCCCCC)CCCCCCC)C(CC1CCN(C)CC1)C(=O)NC1CCCCCC1` (stereo not drawn) [Lipid P38D7, N-(1-(cycloheptylamino)-3-(1-methylpiperidin-4-yl)-1-oxopropan-2-yl)-N-(pentadecan-8-yl)tetradecanamide]?
Answer: Avg. Encapsulation Efficiency (EE) %: 94.8%; Avg. PDI: 0.21; Avg. Size: 236.3 nm

Question: Which “Avg. Encapsulation Efficiency (EE) %” value does the source give for `CCCCCCCCCCCCCC(=O)N(C(CCCCCCCC)CCCCCCCC)C(CC1CCN(C)CC1)C(=O)NC1CCCCCC1` (stereo not drawn) [Lipid P38D8, N-(1-(cycloheptylamino)-3-(1-methylpiperidin-4-yl)-1-oxopropan-2-yl)-N-(heptadecan-9-yl)tetradecanamide] here?
Answer: 95.4%

Question: And the “Avg. PDI” value?
Answer: 0.18

Question: And the “Avg. Size” value?
Answer: 186.9 nm

Question: With `CCCCCCCCCCC(=O)N(CC(CCCCCCCC)CCCCCCCCCC)C(CC1CCN(C)CC1)C(=O)NC1CCCCCC1` (stereo not drawn) [Lipid P40B10, N-(1-(cycloheptylamino)-3-(1-methylpiperidin-4-yl)-1-oxopropan-2-yl)-N-(2-octyldodecyl)undecanamide] as the molecule, how does the “Avg. Encapsulation Efficiency (EE) %” value read?
Answer: 95.8%

Question: What about the “Avg. PDI” value of the same molecule?
Answer: 0.14

Question: What about the “Avg. Size” value of the same molecule?
Answer: 189.9 nm

Question: With `CCCCCCCCCCCC(=O)N(CC(CCCCCCCC)CCCCCCCCCC)C(CC1CCN(C)CC1)C(=O)NC1CCCCCC1` (stereo not drawn) [Lipid P40C10, N-(1-(cycloheptylamino)-3-(1-methylpiperidin-4-yl)-1-oxopropan-2-yl)-N-(2-octyldodecyl)dodecanamide] as the molecule, how does the “Avg. Encapsulation Efficiency (EE) %” value read?
Answer: 99.1%

Question: And the “Avg. PDI” value?
Answer: 0.25

Question: What about the “Avg. Size” value of the same molecule?
Answer: 192.9 nm

Question: With `CCCCCCCCCCCC(=O)N(C(CCCCCCCCCCC)CCCCCCCCCCC)C(CC1CCN(C)CC1)C(=O)NC1CCCCCC1` (stereo not drawn) [Lipid P40C11, N-(1-(cycloheptylamino)-3-(1-methylpiperidin-4-yl)-1-oxopropan-2-yl)-N-(tricosan-12-yl)dodecanamide] as the molecule, how does the “Avg. Encapsulation Efficiency (EE) %” value read?
Answer: 96.6%

Question: What about the “Avg. PDI” value of the same molecule?
Answer: 0.14

Question: What about the “Avg. Size” value of the same molecule?
Answer: 189.3 nm

Question: Which “Avg. Encapsulation Efficiency (EE) %” value does the source give for `CCCCCCCCCCCCCCC(=O)N(C(CCCCCCC)CCCCCCC)C(CC1CCN(C)CC1)C(=O)NC1CCCCCC1` (stereo not drawn) [Lipid P40D7, N-(1-(cycloheptylamino)-3-(1-methylpiperidin-4-yl)-1-oxopropan-2-yl)-N-(pentadecan-8-yl)pentadecanamide] here?
Answer: 98.2%

Question: What about the “Avg. PDI” value of the same molecule?
Answer: 0.18

Question: What about the “Avg. Size” value of the same molecule?
Answer: 149.2 nm

Question: What does the source list for `CCCCCCCCCCCCC(=O)N(CC(CCCCCCCCCC)CCCCCCCCCCCC)C(CC1CCN(C)CC1)C(=O)NC(C)(C)C` (stereo not drawn) [Lipid P51C12, N-(1-(tert-butylamino)-3-(1-methylpiperidin-4-yl)-1-oxopropan-2-yl)-N-(2-decyltetradecyl)tridecanamide]?
Answer: Avg. Encapsulation Efficiency (EE) %: 98.1%; Avg. PDI: 0.26; Avg. Size: 186.5 nm

Question: With `CCCCCCCCCCCC(CCCCCCCCCCC)N(C(=O)CCCCCCCCC)C(C(=O)NC(C)(C)C)C1CCN(CC)CC1` (stereo not drawn) [Lipid P53A5, N-(2-(tert-butylamino)-1-(1-ethylpiperidin-4-yl)-2-oxoethyl)-N-(tricosan-12-yl)decanamide] as the molecule, how does the “Avg. Encapsulation Efficiency (EE) %” value read?
Answer: 97.9%

Question: What about the “Avg. PDI” value of the same molecule?
Answer: 0.10

Question: And the “Avg. Size” value?
Answer: 173.8 nm

Question: Which “Avg. Encapsulation Efficiency (EE) %” value does the source give for `CCCCCCCCCCCCC(CCCCCCCCCC)CN(C(=O)CCCCCCCCC)C(C(=O)NC(C)(C)C)C1CCN(CC)CC1` (stereo not drawn) [Lipid P53A6, N-(2-(tert-butylamino)-1-(1-ethylpiperidin-4-yl)-2-oxoethyl)-N-(2-decyltetradecyl)decanamide] here?
Answer: 98.3%

Question: And the “Avg. PDI” value?
Answer: 0.16

Question: And the “Avg. Size” value?
Answer: 175.6 nm

Question: With `CCCCCCCCCCCCC(CCCCCCCCCC)CN(C(=O)CCCCCCCCCC)C(C(=O)NC12CC3CC(CC(C3)C1)C2)C1CCN(CC)CC1` (stereo not drawn) [Lipid P54B6, N-(2-(((1s,3s)-adamantan-1-yl)amino)-1-(1-ethylpiperidin-4-yl)-2-oxoethyl)-N-(2-decyltetradecyl)undecanamide] as the molecule, how does the “Avg. Encapsulation Efficiency (EE) %” value read?
Answer: 93.4%

Question: And the “Avg. PDI” value?
Answer: 0.10

Question: What about the “Avg. Size” value of the same molecule?
Answer: 181.2 nm

Question: For `CCCCCCCCCCCCCCCC(=O)N(C(CCCCCCC)CCCCCCC)C(C(=O)NC12CC3CC(CC(C3)C1)C2)C1CCN(CC)CC1` (stereo not drawn) [Lipid P56A1, N-(2-(((1s,3s)-adamantan-1-yl)amino)-1-(1-ethylpiperidin-4-yl)-2-oxoethyl)-N-(pentadecan-8-yl)palmitamide], which “Avg. Encapsulation Efficiency (EE) %” value is on record?
Answer: 89.1%

Question: And the “Avg. PDI” value?
Answer: 0.12

Question: What about the “Avg. Size” value of the same molecule?
Answer: 186.3 nm

Question: Which results are given for `CCCCCCCCCCCCCCCC(=O)N(C(CCCCCCCC)CCCCCCCC)C(C(=O)NC12CC3CC(CC(C3)C1)C2)C1CCN(CC)CC1` (stereo not drawn) [Lipid P56A2, N-(2-(((1s,3s)-adamantan-1-yl)amino)-1-(1-ethylpiperidin-4-yl)-2-oxoethyl)-N-(heptadecan-9-yl)palmitamide]?
Answer: Avg. Encapsulation Efficiency (EE) %: 81.5%; Avg. PDI: 0.15; Avg. Size: 154.4 nm

Question: For `CCCCCCCCCCCCCCCCC(=O)N(C(CCCCCCC)CCCCCCC)C(C(=O)NC12CC3CC(CC(C3)C1)C2)C1CCN(CC)CC1` (stereo not drawn) [Lipid P56B1, N-(2-(((1s,3s)-adamantan-1-yl)amino)-1-(1-ethylpiperidin-4-yl)-2-oxoethyl)-N-(pentadecan-8-yl)heptadecanamide], which “Avg. Encapsulation Efficiency (EE) %” value is on record?
Answer: 90.6%

Question: And the “Avg. PDI” value?
Answer: 0.10

Question: And the “Avg. Size” value?
Answer: 173.2 nm

Question: For `CCCCCCCC/C=C\CCCCCCCC(=O)N(C(CCCCCCC)CCCCCCC)C(C(=O)NC1CCCCCC1)C1CCN(CC)CC1` (stereo not drawn) [Lipid P149A1, N-(2-(cycloheptylamino)-1-(1-ethylpiperidin-4-yl)-2-oxoethyl)-N-(pentadecan-8-yl)oleamide], which “Avg. Encapsulation Efficiency (EE) %” value is on record?
Answer: 92.9%

Question: And the “Avg. PDI” value?
Answer: 0.10

Question: And the “Avg. Size” value?
Answer: 219 nm

Question: Which results are given for `CCCCCCCC/C=C\CCCCCCCC(=O)N(C(CCCCCCCC)CCCCCCCC)C(C(=O)NC1CCCCCC1)C1CCN(CC)CC1` (stereo not drawn) [Lipid P149A2, N-(2-(cycloheptylamino)-1-(1-ethylpiperidin-4-yl)-2-oxoethyl)-N-(heptadecan-9-yl)oleamide]?
Answer: Avg. Encapsulation Efficiency (EE) %: 92.0%; Avg. PDI: 0.10; Avg. Size: 218 nm

Question: For `CCCCCC/C=C\CCCCCCCC(=O)N(C(CCCCCCCC)CCCCCCCC)C(C(=O)NC1CCCCCC1)C1CCN(CC)CC1` (stereo not drawn) [Lipid P149C2, (Z)-N-(2-(cycloheptylamino)-1-(1-ethylpiperidin-4-yl)-2-oxoethyl)-N-(heptadecan-9-yl)hexadec-9-enamide], which “Avg. Encapsulation Efficiency (EE) %” value is on record?
Answer: 90.1%

Question: And the “Avg. PDI” value?
Answer: 0.15

Question: And the “Avg. Size” value?
Answer: 176 nm

Question: Which “Avg. Encapsulation Efficiency (EE) %” value does the source give for `CCCCCCCCCCCCOC(=O)CCC(=O)N(C(CCCCCCC)CCCCCCC)C(C(=O)NC1CCCCCC1)C1CCN(CC)CC1` (stereo not drawn) [Lipid P153C1, dodecyl 4-((2-(cycloheptylamino)-1-(1-ethylpiperidin-4-yl)-2-oxoethyl)(pentadecan-8-yl)amino)-4-oxobutanoate] here?
Answer: 90.1%

Question: And the “Avg. PDI” value?
Answer: 0.12

Question: What about the “Avg. Size” value of the same molecule?
Answer: 148 nm
